Reference: patent US8664257B2, “Oxygen-substituted 3-heteroaroylamino-propionic acid derivatives and their use as pharmaceuticals” (Sanofi, priority 2010, dated 2014)
Read-outs that look alike come from different tables or passages of the source.

Molecular target: T1, Recombinant human cathepsin A (Homo sapiens, UniProt P10619)
T1 construct: Recombinant human cathepsin A (residues 29-480, with a C-terminal 10-His tag); 10-His (C); purchased R&D Systems 1049-SE
T1 sequence (P10619 29-312 limits assumed): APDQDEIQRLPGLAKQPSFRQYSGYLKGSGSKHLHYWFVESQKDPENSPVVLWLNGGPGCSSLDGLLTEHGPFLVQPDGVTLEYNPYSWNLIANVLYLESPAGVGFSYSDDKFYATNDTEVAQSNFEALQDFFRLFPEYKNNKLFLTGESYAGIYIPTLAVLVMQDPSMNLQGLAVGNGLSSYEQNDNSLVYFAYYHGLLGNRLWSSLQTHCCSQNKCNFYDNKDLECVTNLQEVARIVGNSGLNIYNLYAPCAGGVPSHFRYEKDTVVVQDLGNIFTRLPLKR
T1 sequence (P10619 327-480 limits assumed): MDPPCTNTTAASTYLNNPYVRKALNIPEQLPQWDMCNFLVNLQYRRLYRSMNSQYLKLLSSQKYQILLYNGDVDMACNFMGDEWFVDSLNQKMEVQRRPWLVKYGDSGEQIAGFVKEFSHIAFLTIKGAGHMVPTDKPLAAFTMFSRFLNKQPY
Assay: Cathepsin A inhibitory activity
Assay type: biochemical
Outline: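 Read-out was microfluidic separation of cleaved vs. uncleaved Bodipy FL-bradykinin (2 μM), giving turnover, % inhibition and IC50. Compound and 833 ng/ml enzyme met for 15 min RT in pH 5.5 MES/DTT before substrate (15 min RT). The 29-480 His-tagged human enzyme was first activated by cathepsin L, then E-64 (10 μM).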

[1] = recombinant human cathepsin A 833 ng/ml, Bodipy FL-labeled bradykinin 2 μM, pH 5.5, read-out: CATH-A IC50
[2] = recombinant human cathepsin A, read-out: Activity (2): Cathepsin A inhibitory activity, IC50 class

| IC50 [1] | IC50 [2] | Compound |
| --- | --- | --- |
| 486 nM | 100 to 1000 nM | O=C(O)CC(NC(=O)c1cc(O)n(-c2ccc(Cl)cc2)n1)c1cccc2c1OC(F)(F)O2 (centres unmarked) [Example 471, 3-{[1-(4-Chloro-phenyl)-5-hydroxy-1H-pyrazole-3-carbonyl]-amino}-3-(2,2-difluoro-benzo[1,3]dioxol-4-yl)-propionic acid] |
| 4090 nM | 1000 to 30000 nM | O=C(O)CC(NC(=O)c1cc(O)n(-c2ccc(Cl)cc2)n1)c1cc(F)ccc1F (centres unmarked) [Example 472, 3-{[1-(4-Chloro-phenyl)-5-hydroxy-1H-pyrazole-3-carbonyl]-amino}-3-(2,5-difluoro-phenyl)-propionic acid] |
| 1730 nM | 1000 to 30000 nM | O=C(O)CC(NC(=O)c1cc(O)n(-c2ccc(Cl)cc2)n1)c1cc(F)ccc1C(F)(F)F (centres unmarked) [Example 473, 3-{[1-(4-Chloro-phenyl)-5-hydroxy-1H-pyrazole-3-carbonyl]-amino}-3-(5-fluoro-2-trifluoromethyl-phenyl)-propionic acid] |
| 207 nM | 100 to 1000 nM | O=C(O)C[C@H](NC(=O)c1cc(O)n(-c2ccc(Cl)cc2)n1)c1ccccc1Cl [Example 474, (S)-3-(2-Chloro-phenyl)-3-{[1-(4-chloro-phenyl)-5-hydroxy-1H-pyrazole-3-carbonyl]-amino}-propionic acid] |
| 137 nM | 100 to 1000 nM | O=C(O)CC(NC(=O)c1cc(O)n(-c2ccccc2F)n1)c1cc(F)ccc1Cl (centres unmarked) [Example 475, 3-(2-Chloro-5-fluoro-phenyl)-3-{[1-(2-fluoro-phenyl)-5-hydroxy-1H-pyrazole-3-carbonyl]-amino}-propionic acid] |
|  | 100 to 1000 nM | O=C(O)CC(NC(=O)c1cc(O)n(-c2ccccc2F)n1)c1cccc2c1OC(F)(F)O2 (centres unmarked) [Example 476] |
|  | 100 to 1000 nM | O=C(O)CC(NC(=O)c1cc(O)n(-c2ccccc2F)n1)c1cc(F)ccc1C(F)(F)F (centres unmarked) [Example 477] |
|  | < 100 nM | Cc1ccc(F)cc1C(CC(=O)O)NC(=O)c1cc(O)n(-c2ccccc2F)n1 (centres unmarked) [Example 478] |
|  | < 100 nM | O=C(O)CC(NC(=O)c1cc(O)n(-c2ccccc2F)n1)c1cc(Cl)ccc1Cl (centres unmarked) [Example 479] |
|  | 100 to 1000 nM | Cc1ccc([C@H](CC(=O)O)NC(=O)c2cc(O)n(-c3ccccc3F)n2)cc1 [Example 480] |
|  | 100 to 1000 nM | O=C(O)CC(NC(=O)c1cc(O)n(-c2ccccc2F)n1)c1ccc(-c2ccccn2)cc1 (centres unmarked) [Example 481] |
|  | 100 to 1000 nM | Cc1c(F)cccc1C(CC(=O)O)NC(=O)c1cc(O)n(-c2cccc(F)c2)n1 (centres unmarked) [Example 482] |
|  | 100 to 1000 nM | O=C(O)CC(NC(=O)c1cc(O)n(-c2cccc(F)c2)n1)c1cc(F)ccc1Cl (centres unmarked) [Example 483] |
|  | 100 to 1000 nM | O=C(O)CC(NC(=O)c1cc(O)n(-c2cccc(F)c2)n1)c1cccc2c1OC(F)(F)O2 (centres unmarked) [Example 484] |
|  | 100 to 1000 nM | O=C(O)CC(NC(=O)c1cc(O)n(-c2cccc(F)c2)n1)c1cc(F)ccc1F (centres unmarked) [Example 485] |
|  | 100 to 1000 nM | O=C(O)CC(NC(=O)c1cc(O)n(-c2cccc(F)c2)n1)c1cc(F)ccc1C(F)(F)F (centres unmarked) [Example 486] |
|  | 100 to 1000 nM | Cc1ccc(F)cc1C(CC(=O)O)NC(=O)c1cc(O)n(-c2cccc(F)c2)n1 (centres unmarked) [Example 487] |
|  | 100 to 1000 nM | O=C(O)CC(NC(=O)c1cc(O)n(-c2cccc(F)c2)n1)c1cc(Cl)ccc1Cl (centres unmarked) [Example 488] |
|  | 100 to 1000 nM | Cc1ccc([C@H](CC(=O)O)NC(=O)c2cc(O)n(-c3cccc(F)c3)n2)cc1 [Example 489] |

| IC50 [1] | IC50 [2] | Compound |
| --- | --- | --- |
|  | 1000 to 30000 nM | CN(C)c1ccc(C(CC(=O)O)NC(=O)c2cc(O)n(-c3ccc(F)cc3)n2)c(Cl)c1 (centres unmarked) [Example 490] |
|  | 100 to 1000 nM | O=C(O)CC(NC(=O)c1cc(O)n(-c2ccc(F)cc2)n1)c1cccc2c1OC(F)(F)O2 (centres unmarked) [Example 491] |
| 175 nM | 100 to 1000 nM | Cc1ccc(F)cc1C(CC(=O)O)NC(=O)c1cc(O)n(-c2ccc(F)cc2)n1 (centres unmarked) [Example 492, 3-(5-Fluoro-2-methyl-phenyl)-3-{[1-(4-fluoro-phenyl)-5-hydroxy-1H-pyrazole-3-carbonyl]-amino}-propionic acid] |
| 246 nM | 100 to 1000 nM | O=C(O)CC(NC(=O)c1cc(O)n(-c2ccc(F)cc2)n1)c1cc(Cl)ccc1Cl (centres unmarked) [Example 493, 3-(2,5-Dichloro-phenyl)-3-{[1-(4-fluoro-phenyl)-5-hydroxy-1H-pyrazole-3-carbonyl]-amino}-propionic acid] |
| 142 nM | 100 to 1000 nM | Cc1c(F)cccc1C(CC(=O)O)NC(=O)c1cc(O)n(-c2ccccc2)n1 (centres unmarked) [Example 494, 3-(3-Fluoro-2-methyl-phenyl)-3-[(5-hydroxy-1-phenyl-1H-pyrazole-3-carbonyl)-amino]-propionic acid] |
| 213 nM | 100 to 1000 nM | O=C(O)CC(NC(=O)c1cc(O)n(-c2ccccc2)n1)c1cc(F)ccc1Cl (centres unmarked) [Example 495, 3-(2-Chloro-5-fluoro-phenyl)-3-[(5-hydroxy-1-phenyl-1H-pyrazole-3-carbonyl)-amino]-propionic acid] |
| 167 nM | 100 to 1000 nM | O=C(O)CC(NC(=O)c1cc(O)n(-c2ccccc2)n1)c1cccc2c1OC(F)(F)O2 (centres unmarked) [Example 496, 3-(2,2-Difluoro-benzo[1,3]dioxol-4-yl)-3-[(5-hydroxy-1-phenyl-1H-pyrazole-3-carbonyl)-amino]-propionic acid] |
| 145 nM | 100 to 1000 nM | Cc1ccc(F)cc1C(CC(=O)O)NC(=O)c1cc(O)n(-c2ccccc2)n1 (centres unmarked) [Example 497, 3-(5-Fluoro-2-methyl-phenyl)-3-[(5-hydroxy-1-phenyl-1H-pyrazole-3-carbonyl)-amino]-propionic acid] |
| 143 nM | 100 to 1000 nM | COc1ccc(F)cc1C(CC(=O)O)NC(=O)c1cc(O)n(-c2ccccc2)n1 (centres unmarked) [Example 498, 3-(5-Fluoro-2-methoxy-phenyl)-3-[(5-hydroxy-1-phenyl-1H-pyrazole-3-carbonyl)-amino]-propionic acid] |
| 147 nM | 100 to 1000 nM | O=C(O)CC(NC(=O)c1cc(O)n(-c2ccccc2)n1)c1ccc(-c2ccccn2)cc1 (centres unmarked) [Example 499, 3-[(5-Hydroxy-1-phenyl-1H-pyrazole-3-carbonyl)-amino]-3-(4-pyridin-2-yl-phenyl)-propionic acid; compound with trifluoro-acetic acid] |
| 86.3 nM | < 100 nM | O=C(O)CC(NC(=O)c1cc(O)n(-c2ccc(F)cc2F)n1)c1cc(Cl)ccc1Cl (centres unmarked) [Example 500, 3-(2,5-Dichloro-phenyl)-3-{[1-(2,4-difluoro-phenyl)-5-hydroxy-1H-pyrazole-3-carbonyl]-amino}-propionic acid] |
|  | < 100 nM | O=C(O)CC(NC(=O)c1cc(O)n(-c2ccc(F)cc2F)n1)c1ccc(-c2ccccn2)cc1 (centres unmarked) [Example 501] |
| 116 nM | 100 to 1000 nM | O=C(O)C[C@H](NC(=O)c1cc(O)n(-c2ccc(F)cc2F)n1)c1ccccc1Cl [Example 502, (S)-3-(2-Chloro-phenyl)-3-{[1-(2,4-difluoro-phenyl)-5-hydroxy-1H-pyrazole-3-carbonyl]-amino}-propionic acid] |
| 391 nM | 100 to 1000 nM | O=C(O)CC(NC(=O)c1cc(O)n(-c2ccccc2Cl)n1)c1cccc2c1OC(F)(F)O2 (centres unmarked) [Example 503, 3-{[1-(2-Chloro-phenyl)-5-hydroxy-1H-pyrazole-3-carbonyl]-amino}-3-(2,2-difluoro-benzo[1,3]dioxol-4-yl)-propionic acid] |
| 123 nM | 100 to 1000 nM | COc1ccc(F)cc1C(CC(=O)O)NC(=O)c1cc(O)n(-c2ccccc2Cl)n1 (centres unmarked) [Example 504, 3-{[1-(2-Chloro-phenyl)-5-hydroxy-1H-pyrazole-3-carbonyl]-amino}-3-(5-fluoro-2-methoxy-phenyl)-propionic acid] |
| 29800 nM | 1000 to 30000 nM | O=C(O)CC(NC(=O)c1cc(O)n(-c2ccccc2Cl)n1)c1ccc(N2CCOCC2)cc1 (centres unmarked) [Example 505, 3-{[1-(2-Chloro-phenyl)-5-hydroxy-1H-pyrazole-3-carbonyl]-amino}-3-(4-morpholin-4-yl-phenyl)-propionic acid] |
| 52.4 nM | < 100 nM | O=C(O)CC(NC(=O)c1cc(O)n(-c2ccccc2Cl)n1)c1ccc(-c2ccccn2)cc1 (centres unmarked) [Example 506, 3-{[1-(2-Chloro-phenyl)-5-hydroxy-1H-pyrazole-3-carbonyl]-amino}-3-(4-pyridin-2-yl-phenyl)-propionic acid] |
| 161 nM | 100 to 1000 nM | O=C(O)C[C@H](NC(=O)c1cc(O)n(-c2ccccc2Cl)n1)c1ccccc1Cl [Example 507, (S)-3-(2-Chloro-phenyl)-3-{[1-(2-chloro-phenyl)-5-hydroxy-1H-pyrazole-3-carbonyl]-amino}-propionic acid] |
| 137 nM | 100 to 1000 nM | Cc1c(F)cccc1C(CC(=O)O)NC(=O)c1cc(O)n(-c2cccc(Cl)c2)n1 (centres unmarked) [Example 508, 3-{[1-(3-Chloro-phenyl)-5-hydroxy-1H-pyrazole-3-carbonyl]-amino}-3-(3-fluoro-2-methyl-phenyl)-propionic acid] |
